{
  "source": "patent US20220096526A1",
  "about": "“METHODS AND COMPOSITIONS FOR THE TREATMENT AND PREVENTION OF OCULAR DISEASES AND CONDITIONS” (Tufts Medical Center, Inc., priority 2019, published 2022)",
  "key": {"[1]": {"test_system": "corneal pDCs", "test": "Ocular inoculation of TLR7 and 9 agonists, single cell PCR on sorted corneal pDCs", "type": "in vivo, mouse", "details": "24 hours; for relative mRNA levels of NGF: 10 μg inoculated to cornea of DPE-GFP×RAG1−/− mice", "method": "(§1) 8-10 corneas of naïve DPE-GFP×RAG1^−/− mice were excised and digested to yield a single cell suspension as described for flow cytometry experiments. GFP-tagged pDCs were sorted via Moflo Cell Sorter (Beckman Coulter) into a 96-well plate (100 cell/well) and cultured for 24 hours in RPMI (Gibco) supplemented with 10% 10% FBS (Gemini Bioproducts), 1% penicillin/streptomycin (Life Technologies), as well as 3 μg/ml Imiquimod, CpG-ODN, or control ODN (all InvivoGen). RNA isolation and cDNA synthesis were performed via REPLI-g Cell WGA & WTA kit (Qiagen). qRT-PCR was performed as described earlier. In another set of experiments, 4-6 corneas of DPE-GFP×RAG1^−/− mice undergoing inoculation of 10 μg Imiquimod, 10 μg CpG-ODN, or control ODN were harvested 24 hours following inoculation; next, corneas were digested and GFP-tagged pDCs were sorted (100 cell/condition) and underwent single cell PCR.\nFollowing anesthetizing DPE-GFP×RAG1^−/− mice and application of topical proparacaine hydrochloride, central corneal epithelium was debrided using an Algerbrush II corneal rust ring remover with a 0.5-mm burr (Alger Equipment Co, Lago Vista, Tex.). 10 μg Imiquimod (TLR7 agonist; InvivoGen, San Diego, Calif.), 10 μg phosphorothioate CpG 1826 oligonucleotide (CpG-ODN; a synthetic TLR9 agonist; InvivoGen), or control oligonucleotide 1826 (Control ODN; InvivoGen) was topically administered on the eye. 24 hours later corneas were removed to sort corneal GFP-tagged pDCs and single cell PCR experiments."}, "[2]": {"test_system": "sorted splenic pDCs", "test": "Phospho-CREB protein level in cultured splenic pDC lysates (Bio-Plex)", "type": "cell-based, mouse", "details": "3 days", "method": "(§2) Isolated splenic pDCs were cultured in 48 well plates (200,000 cells/well) for 3 days with Ham's F-12 Nutrient Mix (Gibco, Carlsbad, Calif.) supplemented with 10% heat inactivated fetal bovine serum (FBS; Gemini Bioproducts, Woodland, Calif.), and 1% penicillin/streptomycin (Life Technologies, Carlsbad, Calif.). Cells were treated with 1, 5, and 10 μg/ml Imiquimod (InvivoGen, San Diego, Calif.) or PBS upon seeding. In another set of experiments, cells were pretreated with 10 μM SB 203580 (p38 MAP kinase inhibitor; Sigma-Aldrich) or PBS 1 hour prior to addition of 1 μg/ml Imiquimod (InvivoGen) or PBS. Cells were harvested for RNA or protein extraction 3 days after culture.\nOn day 3 following culture of sorted pDCs, cells were lysed via Bio-Plex Pro Cell Signaling Reagent Kit (Biorad) supplemented with phosphotase inhibitor cocktail (Roche) and phospho-CREB and β-actin levels were measured via phospho-CREB and β-actin Bio-Plex assays (Biorad) according to the manufacturer's instructions. Relative phospho-CREB to total β-actin protein levels were normalized to control group."}, "[3]": {"test_system": "sorted corneal pDCs", "test": "Single cell PCR on sorted corneal pDCs stimulated in vitro", "type": "cell-based, mouse", "details": "24 hours in vitro, 3 μg/ml", "method": "(§3) Corneal epithelium was removed with fine forceps following 30 minutes incubation with PBS containing 20 mM EDTA (Sigma-Aldrich) at 37° C. Next, 4-6 corneal stromas were pooled and lysed using BeadBug Microtube Homogenizer (Benchmark Scientific, Inc., Edison, N.J.). Next, RNA was isolated from the corneal stroma using RNeasy Plus Universal Mini kit (QIAGEN, Germantown, Md.). For isolating RNA from freshly sorted pDCs, purified cDCs, cultured pDCs, and cultured TGCs, RNeasy Plus Micro Kit (QIAGEN) was used. RNA yield was measured by spectroscopy (NanoDrop ND-1000; NanoDrop Technologies, Inc., Wilmington, Del.). cDNA was synthetized using 300 ng of template RNA using QuantiTect Reverse Transcription kit (Qiagen). qRT-PCR was performed using iTaq Universal SYBR Green Supermix (Biorad, Hercules, Calif.) and Eppendorf Mastercycler RealPlex 2 (Eppendorf, Hauppauge, N.Y.) with the primers described below. Relative mRNA levels were measured with ΔΔCT method.\nas §1"}, "[4]": {"test_system": "splenic pDCs (CD45+PDCA-1+CD45R/B220+)", "test": "Endostatin expression in pDCs of cultured splenic cells (flow cytometry)", "type": "cell-based, mouse", "details": "splenic cells of C57BL/6 mice, 1 μg/ml, 24 hours", "method": "Spleens of wildtype C57BL/6 mice were harvested and subjected to mechanical disruption. Samples were then filtered and underwent RBC lysis via incubation with ammonium chloride RBC lysis buffer (ACK; Biofluids, Rockville, Md.). Next, isolated splenic cells were cultured in RPMI supplemented with 10% heat-inactivated fetal bovine serum (FBS; Gemini Bioproducts, Woodland, Calif.), and 1% penicillin/streptomycin (Life Technologies, Carlsbad, Calif.). Cells were treated with 1 μg/ml Imiquimod (TLR7 agonist; InvivoGen, San Diego, Calif.), CpG-ODN (TLR9 agonist; InvivoGen), or PBS control for 24 hours. The experiment was done in triplicate.\nAfter 24 hours of culture, isolated splenic cells were subjected to flow cytometry. In brief, cells were washed and then fixed and permeabilized using Foxp3/Transcription Factor Fixation/Permeabilization Reagent (eBioscience, San Diego, Calif.) according to the manufacturer's instructions. Cells were then washed twice with permeabilization buffer (eBioscience), blocked in 1% anti-CD16/CD32 FcR mAb at 4° C. in permeabilization buffer, and subsequently labeled with combinations of primary antibodies against CD45 (Biolegend, San Diego, Calif.), PDCA-1 (Biolegend), CD45R/B220 (Biolegend), Endostain (Abcam, Cambridge, Mass.) or their respective isotype controls for 30 minutes at 4° C. in the dark. After washing, cells were labeled with fluorochrome-conjugated anti-rabbit secondary antibody (for Endostatin) for 30 minutes at 4° C. All samples were washed and reconstituted in permeabilization before data acquisition with a BD LSR II flow cytometer (BD Biosciences). Data were analyzed with FlowJo V9.2 (FlowJo, LLC)."}, "[5]": {"test_system": "trigeminal ganglion cells (TGCs)", "test": "Neurite outgrowth of TGCs in mono-culture or pDC co-culture with Imiquimod", "type": "cell-based, mouse", "details": "day 3", "method": "Initially, 10-day old pups were euthanized, TGs were excised, chopped into small fragments, and digested in 2 mg/ml Collagenase D (Roche), 2 mg/ml DNAse I (Roche), and 5 mg/ml Dispase II (Sigma-Aldrich) in Hank's Balanced Salt Solution (Gibco) at 37° C. for 30 minutes. Next, after filtering, cells were layered over a 12.5% on 28% Percoll (GE Healthcare, Pittsburgh, Pa.) gradient in L15 media (Gibco) and centrifuged at 1300 g for 10 minutes. Following removing debris in the percoll interface, purified TGCs were recovered from the bottom of the gradient. Next, 10,000 cells/well were seeded in 24 well cell culture plates coated with growth factor reduced Matrigel (Corning Inc, Corning, N.Y.) in Ham's F-12 Nutrient Mix (Gibco) supplemented with 10% heat inactivated FBS (Gemini Bioproducts), 1% penicillin/streptomycin (Life Technologies) and 100 ng/ml NGF (Sigma-Aldrich). After one day of culture, media was changed to a similar media without NGF and sorted pDCs with different numbers were added to transwells. […] TGCs were used for RNA extraction and quantitative real-time PCR.\nIn another set of experiments, TGCs (10,000 cells/well) were cultured one day to adding 8,000 pDCs/well) to transwells. […] Neurite outgrowth was measured NeuronJ plugin (Meijering et al., Cytometry A 58(2):167-76, 2004) for ImageJ software (NIH, Bethesda, Md.)."}, "[6]": {"test_system": "sorted splenic pDCs", "test": "NGF and CREB relative mRNA (qRT-PCR) in cultured sorted splenic pDCs", "type": "cell-based, mouse", "method": "pDCs were isolated from DPE-GFP×RAG1^−/− and cDCs were purified from naïve WT C57BL/6 mice, respectively. DPE-GFP×RAG1^−/− mice underwent subcutaneous injection of 5×10^6 B16 murine Flt3L-secreting melanoma tumor cells. 10-14 days later, mice were euthanized; spleens were harvested, and mechanically disturbed using a 5 ml syringe plunger and were filtered through a […] cell strainer (BD Falcon). Next, after incubation with ice-cold ammonium chloride (ACK) lysis buffer (Biofluids, Rockville, Md.) for 1 minute to remove contaminating RBCs, cells were washed with PBS. GFP-tagged pDCs were sorted via Moflo Cell Sorter (Beckman Coulter, Brea, Calif.). For obtaining pDCs for co-culturing TGCs with different densities of pDCs, as well as for flow cytometry and presence of NGF mRNA on GFP-tagged splenic pDCs, and comparing the NGF mRNA content in pDCs and cDCs, naïve DPE-GFP×RAG1^−/− mice were used. cDCs were purified using CD11c MicroBeads (Miltenyi Biotec) according to the manufacturer's instruction, with a purity of more than 85%.\nas §2, §3"}},
  "data": [
    {"compound": "CC(C)Cn1cnc2c(N)nc3ccccc3c21", "note": "[Imiquimod]", "values": [
      {"measurement": "relative mRNA levels of NGF", "setting": "[1]", "value": "7.3±1.1", "unit": "fold increase"},
      {"measurement": "CREB mRNA level", "setting": "[1]; ocular inoculation of 10 μg, vs control inoculation", "value": "higher CREB mRNA levels"},
      {"measurement": "phosphorylation of CREB (phospho-CREB normalized to β-actin)", "setting": "[2]; splenic pDCs, 1 μg/ml Imiquimod", "value": "3.8±1.5", "unit": "fold increase"},
      {"measurement": "CREB transcription (relative mRNA)", "setting": "[3]", "value": "increases transcription of CREB"},
      {"measurement": "relative mRNA level of NGF", "setting": "[3]", "value": "2.6±0.7", "unit": "fold increase"},
      {"measurement": "median fluorescent intensity of endostatin staining in pDCs", "setting": "[4]", "value": "increases"},
      {"measurement": "percentage of endostatin-secreting pDCs", "setting": "[4]", "value": "increases the percentage of endostatin-secreting"},
      {"measurement": "neurite outgrowth in TGC mono-culture", "setting": "[5]; TGCs alone, 1, 5 or 10 μg/ml Imiquimod", "value": "does not significantly enhance neurite outgrowth"},
      {"measurement": "neurite outgrowth in pDC and TGC co-culture", "setting": "[5]; TGCs with 8,000 pDCs/well in transwells, 1, 5 or 10 μg/ml Imiquimod", "value": "enhances neurite outgrowth induced by pDCs"},
      {"measurement": "NGF relative mRNA level", "setting": "[6]; splenic GFP-tagged pDCs, 3 days, 1, 5 and 10 μg/ml Imiquimod", "value": "dose dependent increase"},
      {"measurement": "CREB relative mRNA level", "setting": "[6]; splenic GFP-tagged pDCs, 3 days, different concentrations of Imiquimod", "value": "dose-dependent increase"},
      {"measurement": "relative NGF mRNA level", "setting": "[6]; splenic pDCs, 1 μg/ml Imiquimod, 3 days", "value": "2.0±0.6", "unit": "fold increase"}
    ]},
    {"compound": "C[S+]([O-])c1ccc(-c2nc(-c3ccncc3)c(-c3ccc(F)cc3)[nH]2)cc1", "note": "(stereo not shown) [SB 203580]", "values": [
      {"measurement": "phosphorylation of CREB (phospho-CREB normalized to β-actin)", "setting": "[2]; splenic pDCs pre-treated 1 hour with 10 μM SB 203580, then 1 μg/ml Imiquimod, in comparison to control", "value": "0.5±0.2", "unit": "fold change"},
      {"measurement": "relative NGF mRNA level", "setting": "[6]; splenic pDCs pre-treated 1 hour with 10 μM SB 203580, then 1 μg/ml Imiquimod, 3 days", "value": "0.4±0.1", "unit": "fold change"}
    ]},
    {"compound": "phosphorothioate CpG 1826 oligonucleotide [CpG-ODN]", "values": [
      {"measurement": "relative mRNA levels of NGF", "setting": "[1]", "value": "1.8±1.6", "unit": "fold increase"},
      {"measurement": "CREB transcription (relative mRNA)", "setting": "[3]", "value": "does not result in significant escalation in CREB transcription"},
      {"measurement": "relative mRNA level of NGF", "setting": "[3]", "value": "did not result in increased NGF mRNA transcription"},
      {"measurement": "median fluorescent intensity of endostatin staining in pDCs", "setting": "[4]", "value": "increases"},
      {"measurement": "percentage of endostatin-secreting pDCs", "setting": "[4]", "value": "increases the percentage of endostatin-secreting"}
    ]}
  ]
}
